Test results from patent US20240041877A1, “DOSAGE REGIME AND METHOD FOR TREATING PULMONARY ARTERIAL HYPERTENSION” (Altavant Sciences GmbH, priority 2019, published 2024).

Test: Part 2 (MAD): plasma pharmacokinetics after BID oral KAR5585 for 14 days (incl. accumulation ratios and dose proportionality)
[1] = 100 mg (Cohort 2) to 400 mg (Cohort 4), 4-fold increase in dose, fed
[2] = 100 mg KAR5585 BID, fasted, Cohort 1
[3] = 100 mg KAR5585 BID, fasted, Part 2 Cohort 1, mean
[4] = 100 mg KAR5585 BID, fed, Cohort 2
[5] = 100 mg KAR5585 BID, fed, Part 2 Cohort 2, mean
[6] = KAR5585 100 mg BID fasted, Cohort 1, Day 1 AM, geo. mean
[7] = KAR5585 100 mg BID fasted, Cohort 1, Day 1 AM, mean
[8] = KAR5585 100 mg BID fasted, Cohort 1, Day 14/Day 1 accumulation ratio, geo. mean
[9] = KAR5585 100 mg BID fasted, Cohort 1, Day 14/Day 1 accumulation ratio, mean
[10] = KAR5585 100 mg BID fasted, Cohort 1, Day 14, geo. mean
[11] = KAR5585 100 mg BID fasted, Cohort 1, Day 14, mean
[12] = KAR5585 100 mg BID fed, Cohort 2, Day 1 AM, geo. mean
[13] = KAR5585 100 mg BID fed, Cohort 2, Day 1 AM, mean
[14] = KAR5585 100 mg BID fed, Cohort 2, Day 1 PM, geo. mean
[15] = KAR5585 100 mg BID fed, Cohort 2, Day 1 PM, mean
[16] = KAR5585 100 mg BID fed, Cohort 2, Day 7 AM, Day 7/Day 1 accumulation ratio, geo. mean
[17] = KAR5585 100 mg BID fed, Cohort 2, Day 7 AM, Day 7/Day 1 accumulation ratio, mean
[18] = KAR5585 100 mg BID fed, Cohort 2, Day 7 AM, geo. mean
[19] = KAR5585 100 mg BID fed, Cohort 2, Day 7 AM, mean
[20] = KAR5585 100 mg BID fed, Cohort 2, Day 7 PM, Day 7/Day 1 accumulation ratio, geo. mean
[21] = KAR5585 100 mg BID fed, Cohort 2, Day 7 PM, Day 7/Day 1 accumulation ratio, mean
[22] = KAR5585 100 mg BID fed, Cohort 2, Day 7 PM, geo. mean
[23] = KAR5585 100 mg BID fed, Cohort 2, Day 7 PM, mean
[24] = KAR5585 100 mg BID fed, Cohort 2, Day 14 AM, Day 14/Day 1 accumulation ratio, geo. mean
[25] = KAR5585 100 mg BID fed, Cohort 2, Day 14 AM, Day 14/Day 1 accumulation ratio, mean
[26] = KAR5585 100 mg BID fed, Cohort 2, Day 14 AM, geo. mean
[27] = KAR5585 100 mg BID fed, Cohort 2, Day 14 AM, mean
[28] = KAR5585 200 mg BID fed, Cohort 3, Day 1 AM, geo. mean
[29] = KAR5585 200 mg BID fed, Cohort 3, Day 1 AM, mean
[30] = KAR5585 200 mg BID fed, Cohort 3, Day 1 PM, geo. mean

Description: Food effect was to be evaluated in Part 1, Period 2.
Pharmacokinetic data were to be summarized descriptively.

Nc1nc(O[C@H](c2ccc(Cl)cc2-c2ccccc2)C(F)(F)F)cc(N2CCC3(CC2)CN[C@H](C(=O)O)C3)n1 [KAR5417, (S)-8-(2-amino-6-((R)-1-(5-chloro-[1,1T-biphenyl]-2-yl)-2,2,2-trifluoroeth-oxy)pyrimidin-4-yl)-2,8-diazaspiro[4.5]decane-3-carboxylic acid]
fold increase in mean AUC0-12, Day 1 [1]: 7.0 fold
fold increase in mean AUC0-12, Day 14 [1]: 4.6 fold
fold increase in mean AUC0-24, Day 1 [1]: 6.45 fold
fold increase in mean AUC0-24, Day 14 [1]: 4.45 fold
fold increase in mean Cmax, Day 1 [1]: 6.9 fold
fold increase in mean Cmax, Day 14 [1]: ~4.5 fold
RAUC0-12 (accumulation ratio for AUC0-12), range Day 7/Day 1 and Day 14/Day 1 (100 mg KAR5585 BID): 2.19-2.57
half-life, Day 14 (100 mg KAR5585 BID, fasted): 18.8 h
peak mean concentration of KAR5417 relative to KAR5585, Day 1 [2]: approximately 7.25 fold
peak mean concentration of KAR5417 relative to KAR5585, Day 14 [2]: ~9.1 fold
time peak plasma concentrations were reached, Day 1 [2]: 2.0 to 6.0 h
AUC0-12, Day 1 [3]: 741 ng·h/mL
AUC0-24, Day 14 [3]: 1650 ng·h/mL
mean apparent elimination half-life, Day 14 (100 mg KAR5585 BID, fed): 19.6 h
Cmax (peak mean concentration), Day 1 [4]: 85.9 ng/mL
Cmax (peak mean concentration), Day 14 [4]: 168 ng/mL
mean Cmax plasma concentrations, range on all dosing days [4]: 85.9 to 168 ng/mL
AUC0-12, Day 1 [5]: 470 ng·h/mL
AUC0-24, Day 14 [5]: 1220 ng·h/mL
RAUC0-12 (accumulation ratio for AUC0-12), range Day 7/Day 1 and Day 14/Day 1 (200 mg KAR5585 BID): 1.09-1.34
mean apparent elimination half-life, Day 14 (200 mg KAR5585 BID, fed): 25.0 h
RAUC0-12 (accumulation ratio for AUC0-12), range Day 7/Day 1 and Day 14/Day 1 (400 mg KAR5585 BID): 1.65-2.38
mean apparent elimination half-life, Day 14 (400 mg KAR5585 BID, fed): 30.6 h
steady-state plasma levels achieved by (BID oral KAR5585 for 14 days): ≤ 7 days
AUC0-12 [6]: 643 ng·h/mL
AUC0-∞ [6]: 769 ng·h/mL
C12 [6]: 19.5 ng/mL
Cmax [6]: 101 ng/mL
Cmax/D [6]: 1.01 (ng/ml)/mg
t1/2 [6]: 3.37 h
AUC0-12 [7]: 741 ng·h/mL
AUC0-∞ [7]: 876 ng·h/mL
C12 [7]: 21.3 ng/mL
Cmax/D [7]: 1.21 (ng/ml)/mg
t1/2 [7]: 3.43 h
RAUC0-12 [8]: 1.64
RCmax [8]: 1.75
RAUC0-12 [9]: 1.83
RCmax [9]: 2.56
AUC0-12 [10]: 1150 ng·h/mL
AUC0-24 [10]: 1490 ng·h/mL
AUC0-24/D [10]: 14.9 (hr*ng/ml)/mg
AUC0-∞ [10]: 1960 ng·h/mL
C12 [10]: 42.0 ng/mL
C24 [10]: 18.1 ng/mL
Cmax [10]: 177 ng/mL
Cmax/D [10]: 1.77 (ng/ml)/mg
t1/2 [10]: 17.6 h
AUC0-12 [11]: 1280 ng·h/mL
AUC0-24 [11]: 1650 ng·h/mL
AUC0-24/D [11]: 16.5 (hr*ng/ml)/mg
AUC0-∞ [11]: 2220 ng·h/mL
C12 [11]: 46.3 ng/mL
Cmax/D [11]: 1.94 (ng/ml)/mg
t1/2 [11]: 18.8 h
AUC0-12 [12]: 428 ng·h/mL
AUC0-∞ [12]: 516 ng·h/mL
C12 [12]: 15.4 ng/mL
Cmax [12]: 79.2 ng/mL
Cmax/D [12]: 0.792 (ng/ml)/mg
t1/2 [12]: 4.16 h
AUC0-12 [13]: 470 ng·h/mL
AUC0-∞ [13]: 564 ng·h/mL
C12 [13]: 17.2 ng/mL
Cmax [13]: 85.9 ng/mL
Cmax/D [13]: 0.859 (ng/ml)/mg
t1/2 [13]: 4.18 h
AUC0-12 [14]: 714 ng·h/mL
AUC0-24/D [14]: 5.78 (hr*ng/ml)/mg
AUC0-∞ [14]: 1090 ng·h/mL
C12 [14]: 39.5 ng/mL
Cmax [14]: 119 ng/mL
Cmax/D [14]: 1.19 (ng/ml)/mg
t1/2 [14]: 6.95 h
AUC0-12 [15]: 748 ng·h/mL
AUC0-24 [15]: 1220 ng·h/mL
AUC0-24/D [15]: 6.09 (hr*ng/ml)/mg
AUC0-∞ [15]: 1140 ng·h/mL
C12 [15]: 43.1 ng/mL
Cmax [15]: 130 ng/mL
Cmax/D [15]: 1.3 (ng/ml)/mg
t1/2 [15]: 7.00 h
RAUC0-12 [16]: 2.45
RCmax [16]: 2.02
RAUC0-12 [17]: 2.57
RCmax [17]: 2.07
AUC0-12 [18]: 1050 ng·h/mL
AUC0-∞ [18]: 1380 ng·h/mL
C12 [18]: 44.3 ng/mL
Cmax/D [18]: 1.60 (ng/ml)/mg
t1/2 [18]: 5.24 h
AUC0-12 [19]: 1080 ng·h/mL
AUC0-∞ [19]: 1410 ng·h/mL
C12 [19]: 45.1 ng/mL
Cmax [19]: 168 ng/mL
Cmax/D [19]: 1.68 (ng/ml)/mg
t1/2 [19]: 5.31 h
RAUC0-12 [20]: 2.04
RCmax [20]: 1.34
RAUC0-12 [21]: 2.19
RCmax [21]: 1.43
AUC0-12 [22]: 875 ng·h/mL
AUC0-24 [22]: 1930 ng·h/mL
AUC0-24/D [22]: 9.64 (hr*ng/ml)/mg
AUC0-∞ [22]: 1700 ng·h/mL
C12 [22]: 61.4 ng/mL
Cmax [22]: 106 ng/mL
Cmax/D [22]: 1.06 (ng/ml)/mg
t1/2 [22]: 7.91 h
AUC0-12 [23]: 902 ng·h/mL
AUC0-24 [23]: 1990 ng·h/mL
AUC0-24/D [23]: 9.93 (hr*ng/ml)/mg
AUC0-∞ [23]: 1730 ng·h/mL
C12 [23]: 62.3 ng/mL
Cmax/D [23]: 1.12 (ng/ml)/mg
t1/2 [23]: 8.10 h
RAUC0-12 [24]: 2.09
RCmax [24]: 1.90
RAUC0-12 [25]: 2.23
RCmax [25]: 1.98
AUC0-12 [26]: 900 ng·h/mL
AUC0-24 [26]: 1220 ng·h/mL
AUC0-∞ [26]: 1780 ng·h/mL
C12 [26]: 35.4 ng/mL
C24 [26]: 19.3 ng/mL
Cmax [26]: 155 ng/mL
Cmax/D [26]: 1.55 (ng/ml)/mg
t1/2 [26]: 19.0 h
AUC0-12 [27]: 943 ng·h/mL
AUC0-24 [27]: 1270 ng·h/mL
AUC0-∞ [27]: 1830 ng·h/mL
C12 [27]: 36.4 ng/mL
C24 [27]: 19.6 ng/mL
Cmax [27]: 168 ng/mL
Cmax/D [27]: 1.68 (ng/ml)/mg
t1/2 [27]: 19.6 h
AUC0-12 [28]: 1620 ng·h/mL
AUC0-∞ [28]: 1980 ng·h/mL
C12 [28]: 56.6 ng/mL
Cmax [28]: 336 ng/mL
Cmax/D [28]: 1.68 (ng/ml)/mg
t1/2 [28]: 4.41 h
AUC0-12 [29]: 1700 ng·h/mL
C12 [29]: 60.7 ng/mL
Cmax [29]: 357 ng/mL
Cmax/D [29]: 1.79 (ng/ml)/mg
t1/2 [29]: 4.49 h
AUC0-12 [30]: 1910 ng·h/mL
AUC0-24 [30]: 3540 ng·h/mL
AUC0-24/D [30]: 8.85 (hr*ng/ml)/mg
AUC0-∞ [30]: 2640 ng·h/mL
C12 [30]: 102 ng/mL
Cmax [30]: 307 ng/mL
Cmax/D [30]: 1.54 (ng/ml)/mg
